{"source": "patent US20250009852A1", "about": "“DEPLETING EGFR AND HER2 OVERCOMES RESISTANCE TO EGFR INHIBITORS IN COLORECTAL CANCER” (Health Research, Inc., priority 2021, published 2025)", "molecules": {"B1": {"name": "PEPD^G278D: recombinant and enzymatically inactive mutant of human peptidase D (PEPD), with replacement of glycine 278 by aspartic acid (protein)", "chain": "AAATGPSFWLGNETLKVPLALFALNRQRLCERLRKNPAVQAGSIVVLQGGEETQRYCTDTGVLFLQESFFHWAFGVTEPGCYGVIDVDTGKSTLFVPRLPASHATWMGKIHSKEHFKEKYAVDDVQYVDEIASVLTSQKPSVLLTLRGVNTDSGSVCREASFDGISKFEVNNTILHPEIVESRVFKTDMELEVLRYTNKISSEAHREVMKAVKVGMKEYGLESLFEHYCYSRGGMRHSSYTCICGSGENSAVLHYGHAGAPNDRTIQNGDMCLFDMDGEYYSVASDITCSFPRNGKFTADQKAVYEAVLLSSRAVMGAMKPGDWWPDIDRLADRIHLEELAHMGILSGSVDAMVQAHLGAVFMPHGLGHFLGIDVHDVGGYPEGVERIDEPGLRSLRTARHLQPGMVLTVEPGIYFIDHLLDEALADPARASFLNREVLQRFRGFGGVRIEEDVVVIDSGIELLTCVPRTVEEIEACMAGCDKAFTPFSGPK", "modifications": "left off: small tags and cut ends"}}, "key": {"[1]": {"test_system": "HT29 tumors", "assay": "Subcutaneous HT29 tumors in SCID mice", "assay_type": "in vivo, mouse", "settings": "sc HT29 tumors", "protocol": "SCID mice (C.B.17 SCID) were bred by the Laboratory Animal Shared Resource at Roswell Park Comprehensive Cancer Center. Male mice at 7-8 weeks of age were used. All mouse experiments were approved by the Institutional Animal Care and Use Committee at Roswell Park Comprehensive Cancer Center under protocol 1022M. We established subcutaneous tumors by inoculating 1×10^6 HCT116 cells, 4×10^6 HT29 cells, or 2×10^6 SW48 cells to the flank of each mouse in 100 μl of serum free medium. Colon patient-derived xenograft (PDX) 14650 was established from a liver metastatic lesion in a patient treated at Roswell Park Comprehensive Cancer Center. Tumor fragments (˜20 mm^3) from donor mice were implanted into the flank of each mouse subcutaneously using a trocar. Orthotopic colon tumors in mice were established by inoculating HCT116 cells stably transfected with firefly luciferase (2×10^6 cells in 50 μl of 50% serum-free medium and 50% Matrigel) to the caecum wall of each mouse. Mice in each tumor model were randomized cage-wise into treatment groups using Research Randomizer (www.randomizer.org). Subcutaneous tumor volume was measured using length ×width^2÷2. Tumor volume was measured three times each week. Orthotopic tumor growth was monitored by bioluminescence weekly. Mice were given D-luciferin (150 mg/kg) by ip and anesthetized with isoflurane, and tumor burden was measured by bioluminescence using the IVIS Spectrum In Vivo Imaging System (PerkinElmer). Drug treatment was started when significant tumor growth was detected. EP (0.5 mg/kg) was administered to mice ip once daily. PEPD^G278D (4 mg/kg) was administered to mice ip thrice weekly (Monday, Wednesday, Friday). Aderbasib (60 mg/kg) was administered to mice by gavage once daily. 5-FU (35 mg/kg) was administered to mice ip twice weekly (Monday and Thursday). EP, PEPD^G278D and 5-FU were administered to mice in PBS. Aderbasib was first dissolved in DMSO and then diluted by PBS (final 5% DMSO by volume). […] The mice were closely monitored for sign of adverse effects and weighed three times each week. […]"}, "[2]": {"test_system": "HER3, IGF1R, MET, SRC, AKT, ERK, MEK, NRAS, HRAS, caspase 3", "assay": "Western blotting of tumor homogenates: other signaling proteins", "assay_type": "in vivo, mouse", "protocol": "To prepare whole cell lysates, cells were washed with PBS twice, mixed with 1× cell lysis buffer from Cell Signaling Technology supplemented with 2 mM PMSF and a protease inhibitor cocktail from Roche Applied Science, placed on ice for 10 min, sonicated at 0-4° C. to enhance cell lysis using a Branson Model 450 sonifier, and finally centrifuged at 13,000 g for 10 min at 4° C., and the supernatant fraction is collected as whole cell lysate. Tumor and samples were mixed with RIPA buffer (25 mM Tris-HCl, PH7.6, 150 mM NaCl, 1% Nonidet P-40, 1% sodium deoxycholate, and 0.1% SDS), which was supplemented with 2 mM PMSF, the protease inhibitor cocktail mentioned above, phosphatase inhibitor cocktail 2 and phosphatase inhibitor cocktail 3 from Sigma-Aldrich at 14.3 μl buffer per mg tissue, and homogenized in a Dounce homogenizer. The homogenates were cleared by centrifugation at 13,000 g for 15 min at 4° C.\nProtein concentrations in all samples were measured using the BCA Assay Kit. For Western blotting, each sample was mixed with 4× loading dye, heated for 5 min at 95° C., and resolved by SDS-PAGE (8-12.5%). Proteins were transferred to polyvinylidene fluoride membrane, probed with specific antibodies, and detected using either Luminata Classico (Millipore) or Luminata Cresendo (Millipore). […] The beads were washed three times with IP buffer, suspended in 2× SDS loading buffer, boiled for 5 min, and analyzed by Western blotting.\nSCID mice (C.B.17 SCID) were bred by the Laboratory Animal Shared Resource at Roswell Park Comprehensive Cancer Center. […] Subcutaneous tumor volume was measured using length ×width^2÷2. Tumor volume was measured three times each week. Orthotopic tumor growth was monitored by bioluminescence weekly. Mice were given D-luciferin (150 mg/kg) by ip and anesthetized with isoflurane, and tumor burden was measured by bioluminescence using the IVIS Spectrum In Vivo Imaging System (PerkinElmer). Drug treatment was started when significant tumor growth was detected. […] The mice were closely monitored for sign of adverse effects and weighed three times each week."}}}
{"molecule": "COC(=O)N1CC2(CC2)C[C@H](C(=O)NO)[C@H]1C(=O)N1CC=C(c2ccccc2)CC1", "note": "[aderbasib]", "values": [{"measurement": "tumor growth", "setting": "[1]; aderbasib alone 60 mg/kg by gavage daily", "value": "ineffective"}, {"measurement": "expression or phosphorylation of the proteins analyzed in tumors", "setting": "[2]; HCT116 and HT29 tumors, single agent", "value": "neither EP nor aderbasib had any effect"}]}
{"molecule": "B1", "values": [{"measurement": "tumor growth", "setting": "[1]; EP plus PEPD^G278D 4 mg/kg ip three times weekly, or cetuximab 15 mg/kg ip twice weekly", "value": "neither agent inhibited the growth"}, {"measurement": "ERK phosphorylation in tumors", "setting": "[2]; SW48 tumors, 24 h after the final dose", "value": "decreased ERK phosphorylation"}]}
